Measured values published in PubChem BioAssay AID256 (DTP/NCI, 2004).
Inconclusive results and toxic doses are left out.

System: CD2F1 mice, L1210 leukemia ip, survival T/C
Experiment: NCI In Vivo Anticancer Drug Screen. Data for tumor model L1210 Leukemia (intraperitoneal) in CD2F1 (CDF1) mice
Details: endpoint: mean survival time, higher = longer survival
Outline: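 Read-out first: treated-group measurement over vehicle-control measurement, expressed as a ratio. Animals bore a transplanted tumor line and were dosed with compound or vehicle.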

[1] = dose: 100.0 mg/kg/injection, schedule: Q04DX003 (ip), vehicle: saline with Tween-80
[2] = dose: 75.0 mg/kg/injection, schedule: Q01DX001 (ip), vehicle: saline
[3] = dose: 150.0 mg/kg/injection, schedule: Q01DX001 (ip), vehicle: saline
[4] = dose: 25.0 mg/kg/injection, schedule: Q01DX009 (ip), vehicle: saline with Tween-80

Which results are given for `Nc1nc(N)nc(NC(=O)COc2cc(Cl)c(Cl)cc2Cl)n1`?
T/C (dose: 100.0 mg/kg/injection, schedule: Q01DX009 (ip), vehicle: saline with Tween-80): 100 % of control; T/C [1]: 92 % of control; T/C (dose: 200.0 mg/kg/injection, schedule: Q01DX009 (ip), vehicle: saline with Tween-80): 105 % of control; T/C (dose: 400.0 mg/kg/injection, schedule: Q01DX009 (ip), vehicle: saline with Tween-80): 103 % of control; T/C (dose: 400.0 mg/kg/injection, schedule: Q04DX003 (ip), vehicle: saline with Tween-80): 88 % of control

For `CC1(C)C(N2CCCCC2)CS1(=O)=O` (stereo unspecified), which T/C (dose: 25.0 mg/kg/injection, schedule: Q04DX003 (ip), vehicle: saline) is on record?
Its T/C is 98 % of control.

And the T/C (dose: 50.0 mg/kg/injection, schedule: Q04DX003 (ip), vehicle: saline)?
The T/C was 95 % of control.

What about the T/C (dose: 100.0 mg/kg/injection, schedule: Q01DX001 (ip), vehicle: saline) of the same compound?
Its T/C is 101 % of control.

What does the source list for `ClCCN(CCCl)c1ccc(CCCCN2CCOCC2)cc1`?
T/C (dose: 10.0 mg/kg/injection, schedule: Q01DX009 (ip), vehicle: saline): 119 % of control; T/C (dose: 40.0 mg/kg/injection, schedule: Q01DX009 (ip), vehicle: saline): 103 % of control

`CCOC1(OCC)C2C=CC1C1C(=O)OC(=O)C12` (stereo unspecified) was tested. Which T/C [2] did it give?
Its T/C is 103 % of control.

What about the T/C [3] of the same compound?
The T/C was 108 % of control.

And the T/C (dose: 300.0 mg/kg/injection, schedule: Q01DX001 (ip), vehicle: saline)?
Its T/C is 102 % of control.

With `CC(=O)Nc1cccc(N=Cc2ccc(N(CCOS(C)(=O)=O)CCOS(C)(=O)=O)cc2C)c1` as the compound, how does the T/C (dose: 6.25 mg/kg/injection, schedule: Q01DX009 (ip), vehicle: saline with Tween-80) read?
Its T/C is 123 % of control.

And the T/C (dose: 8.0 mg/kg/injection, schedule: Q01DX009 (ip), vehicle: saline with Tween-80)?
The T/C was 118 % of control.

And the T/C [4]?
The T/C was 124 % of control.

Which T/C [2] does the source give for `Cc1ccc2c(c1)nc1c3ccccc3nnn21` here?
The T/C was 95 % of control.

What about the T/C [3] of the same compound?
The T/C was 95 % of control.

`CCCCCCCCCCCCOC(=O)C[n+]1cccc(C(=O)Nc2ccccc2)c1` was tested. Which T/C [4] did it give?
Its T/C is 95 % of control.

What about the T/C [1] of the same compound?
Its T/C is 102 % of control.

Which T/C (dose: 100.0 mg/kg/injection, schedule: Q01DX001 (ip), vehicle: saline with Tween-80) does the source give for `c1ccc(NC2=NCCO2)nc1` here?
Its T/C is 101 % of control.

What about the T/C (dose: 200.0 mg/kg/injection, schedule: Q01DX001 (ip), vehicle: saline with Tween-80) of the same compound?
Its T/C is 100 % of control.

`O=C1c2ccccc2C(O)(c2[nH]nc3ccccc23)N1c1ccccc1` (stereo unspecified) was tested. Which T/C (dose: 50.0 mg/kg/injection, schedule: Q04DX002 (ip), vehicle: saline with Tween-80) did it give?
Its T/C is 103 % of control.

What about the T/C (dose: 100.0 mg/kg/injection, schedule: Q04DX002 (ip), vehicle: saline with Tween-80) of the same compound?
Its T/C is 103 % of control.

What about the T/C (dose: 200.0 mg/kg/injection, schedule: Q04DX002 (ip), vehicle: saline with Tween-80) of the same compound?
Its T/C is 113 % of control.

And the T/C (dose: 400.0 mg/kg/injection, schedule: Q04DX002 (ip), vehicle: saline with Tween-80)?
The T/C was 106 % of control.
